From patent US10703764B2, “Benzopiperazine compositions as BET bromodomain inhibitors” (FORMA Therapeutics, Inc., priority 2013, dated 2020)

Tests used:
[1] = target: T1, BRD4 BD1 (Homo sapiens, UniProt O60885); experiment: AlphaScreen binding assay, BRD4 Bromodomain 1
T1 construct: made in house
Outline: (§1)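 An AlphaScreen competition format was used with His-BRD4 BD1 or BD2 and biotin-H4 K5/8/12/16-acetyl peptide, each at matched final levels of 50 nM (BD1) or 100 nM (BD2). Incubation in HEPES/NaCl buffer with 0.1% BSA and 0.01% Triton X-100 ran ≥1 h before IC50 determination.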

[2] = target: T2, BRD4 BD2 (Homo sapiens, UniProt O60885); experiment: AlphaScreen binding assay, BRD4 Bromodomain 2
T2 construct: made in house
Outline: as §1

Structure (SMILES)	IC50 [1]	IC50 [2]
CC(=O)N1c2ccccc2N(C(=O)CC2CCN(S(C)(=O)=O)CC2)C[C@@H]1C [Example I-762]	> 10000 nM	> 500 nM
CC(=O)N1c2ccc(-c3ccc(S(C)(=O)=O)cc3)cc2N(C(=O)c2cn3ccncc3n2)C[C@@H]1C [Example I-779]	> 10000 nM	> 500 nM
CC(=O)N1c2ccc(-c3ccc(S(C)(=O)=O)cc3)cc2N(C(=O)c2ccccn2)C[C@@H]1C [Example I-782]	> 10000 nM	50 to 500 nM
CC(=O)N1c2ccc(-c3ccc(S(C)(=O)=O)cc3)cc2N(C(=O)c2csnn2)C[C@@H]1C [Example I-783]	1000 to 10000 nM	> 500 nM
CC(=O)N1c2ccc(-c3ccc(S(C)(=O)=O)cc3)cc2N(C(=O)c2nccn2C)C[C@@H]1C [Example I-784]	> 10000 nM	> 500 nM
CC(=O)N1c2ccc(-c3ccc(S(C)(=O)=O)cc3)cc2N(C(=O)c2cc3cc(Cl)ccc3[nH]2)CC1C (stereo not drawn) [Example I-785]	1000 to 10000 nM	50 to 500 nM
CC(=O)N1c2ccc(-c3ccc(S(C)(=O)=O)cc3)cc2N(C(=O)c2cc3ccc(Cl)cc3[nH]2)CC1C (stereo not drawn) [Example I-787]	1000 to 10000 nM	50 to 500 nM
CC(=O)N1c2ccc(-c3ccc(S(C)(=O)=O)cc3)cc2N(C(=O)c2cc3cc(OC(F)(F)F)ccc3[nH]2)CC1C (stereo not drawn) [Example I-788]	> 10000 nM	> 500 nM
CC(=O)N1c2ccc(-c3ccc(S(C)(=O)=O)cc3)cc2N(C(=O)c2oc3ccccc3c2-c2ccccc2)C[C@@H]1C [Example I-790]	> 10000 nM	> 500 nM
CC(=O)N1c2ccc(-c3cccc(C(=O)NC4CC4)c3)cc2N(C(=O)c2ccco2)C[C@@H]1C [Example I-802]	1000 to 10000 nM	< 50 nM
CC(=O)N1c2ccc(-c3ccc(-n4cccn4)cc3)cc2N(C(=O)c2ccco2)C[C@@H]1C [Example I-803]	1000 to 10000 nM	50 to 500 nM
CC(=O)N1c2ccc(-c3ccc(Cl)cc3)cc2N(C(=O)c2ccco2)C[C@@H]1C [Example I-805]	1000 to 10000 nM	50 to 500 nM
CC(=O)N1c2ccc(-c3ccc(OC(F)(F)F)cc3)cc2N(C(=O)c2ccco2)C[C@@H]1C [Example I-808]	1000 to 10000 nM	50 to 500 nM
CC(=O)N1c2ccc(-c3ccc(C#N)cc3)cc2N(C(=O)c2ccco2)C[C@@H]1C [Example I-811]	1000 to 10000 nM	< 50 nM
CC(=O)N1c2ccc(-c3cccc(C#N)c3)cc2N(C(=O)c2ccco2)C[C@@H]1C [Example I-812]	1000 to 10000 nM	< 50 nM
CC(=O)N1c2ccc(-c3ccc(Oc4ccccc4)cc3)cc2N(C(=O)c2ccco2)C[C@@H]1C [Example I-813]	1000 to 10000 nM	50 to 500 nM
CC(=O)N1c2ccc(-c3ccc(-n4cccn4)c(F)c3)cc2N(C(=O)c2ccco2)C[C@@H]1C [Example I-814]	1000 to 10000 nM	< 50 nM
CC(=O)N1c2ccc(-c3ccc(C(F)(F)F)cc3)cc2N(C(=O)c2ccco2)C[C@@H]1C [Example I-815]	1000 to 10000 nM	50 to 500 nM
CC(=O)N1c2ccc(-c3c(C)noc3C)cc2N(C(=O)c2ccco2)C[C@@H]1C [Example I-816]	> 10000 nM	> 500 nM

Structure (SMILES)	IC50 [1]	IC50 [2]
CC(=O)N1c2ccc(-c3ccc(F)cc3)cc2N(C(=O)c2ccco2)C[C@@H]1C [Example I-818]	1000 to 10000 nM	< 50 nM
CC(=O)N1c2ccc(-c3ccncc3)cc2N(C(=O)c2ccco2)C[C@@H]1C [Example I-820]	1000 to 10000 nM	< 50 nM
CC(=O)N1c2ccc(-c3cncnc3)cc2N(C(=O)c2ccco2)C[C@@H]1C [Example I-821]	> 10000 nM	50 to 500 nM
COc1cc(F)ccc1-c1ccc2c(c1)N(C(=O)c1ccco1)C[C@H](C)N2C(C)=O [Example I-826]	> 10000 nM	> 500 nM
CC(=O)N1c2ccc(-c3ccccc3NS(C)(=O)=O)cc2N(C(=O)c2ccco2)C[C@@H]1C [Example I-827]	> 10000 nM	> 500 nM
COc1cc(-c2ccc3c(c2)N(C(=O)c2ccco2)C[C@H](C)N3C(C)=O)ccc1F [Example I-828]	1000 to 10000 nM	50 to 500 nM
CC(=O)N1c2ccc(-c3ccc(F)c(C(=O)NC(C)C)c3)cc2N(C(=O)c2ccco2)C[C@@H]1C [Example I-829]	1000 to 10000 nM	< 50 nM
CC(=O)N1c2ccc(-c3cncc(F)c3)cc2N(C(=O)c2ccco2)C[C@@H]1C [Example I-830]	1000 to 10000 nM	50 to 500 nM
CC(=O)N1c2ccc(-c3cnc(N(C)C)nc3)cc2N(C(=O)c2ccco2)C[C@@H]1C [Example I-831]	1000 to 10000 nM	< 50 nM
CC(=O)N1c2ccc(-c3cncc(Cl)c3)cc2N(C(=O)c2ccco2)C[C@@H]1C [Example I-832]	1000 to 10000 nM	50 to 500 nM
COc1ccc(-c2ccc3c(c2)N(C(=O)c2ccco2)C[C@H](C)N3C(C)=O)cn1 [Example I-833]	1000 to 10000 nM	50 to 500 nM
COc1ncc(-c2ccc3c(c2)N(C(=O)c2ccco2)C[C@H](C)N3C(C)=O)cn1 [Example I-834]	1000 to 10000 nM	50 to 500 nM
COc1cncc(-c2ccc3c(c2)N(C(=O)c2ccco2)C[C@H](C)N3C(C)=O)c1 [Example I-835]	1000 to 10000 nM	50 to 500 nM
CNC(=O)c1ccc(-c2ccc3c(c2)N(C(=O)c2ccco2)C[C@H](C)N3C(C)=O)cn1 [Example I-836]	1000 to 10000 nM	< 50 nM
CC(=O)N1c2ccc(-c3ccc(C(F)(F)F)nc3)cc2N(C(=O)c2ccco2)C[C@@H]1C [Example I-837]	1000 to 10000 nM	50 to 500 nM
CC(=O)N1c2ccc(-c3ccc4cn(C)nc4c3)cc2N(C(=O)c2ccco2)C[C@@H]1C [Example I-840]	1000 to 10000 nM	50 to 500 nM
CC(=O)N1c2ccc(-c3cccc4cnn(C)c34)cc2N(C(=O)c2ccco2)C[C@@H]1C [Example I-842]	> 10000 nM	> 500 nM
CC(=O)N1c2ccc(-c3cccc4[nH]ccc34)cc2N(C(=O)c2ccco2)CC1C (stereo not drawn) [Example I-846]	1000 to 10000 nM	50 to 500 nM
CC(=O)N1c2ccc(-c3cccc(S(C)(=O)=O)c3)cc2N(C(=O)c2ccco2)C[C@@H]1C [Example I-847]	1000 to 10000 nM	50 to 500 nM

Second part, the compound after the results:

IC50 [1]	IC50 [2]	Structure (SMILES)
> 10000 nM	> 500 nM	CC(=O)N1c2ccccc2N(C(=O)c2cnn(-c3ccccc3)c2C(F)(F)F)C[C@@H]1C [Example I-756]
> 10000 nM	> 500 nM	CC(=O)N1c2ccccc2N(C(=O)c2snnc2C)C[C@@H]1C [Example I-757]
> 10000 nM	> 500 nM	COc1ncccc1C(=O)N1C[C@H](C)N(C(C)=O)c2ccccc21 [Example I-758]
> 10000 nM	> 500 nM	CC(=O)N1c2ccccc2N(C(=O)c2cc3cc(Cl)ccc3o2)C[C@@H]1C [Example I-759]
> 10000 nM	> 500 nM	CC(=O)N1c2ccccc2N(C(=O)c2ccc3cc[nH]c3c2)CC1C (stereo not drawn) [Example I-760]
> 10000 nM	> 500 nM	CC(=O)N1c2ccccc2N(C(=O)c2csc(C(F)(F)F)n2)C[C@@H]1C [Example I-761]
> 10000 nM	> 500 nM	CC(=O)N1c2ccccc2N(C(=O)c2ccc(F)cn2)C[C@@H]1C [Example I-763]
> 10000 nM	> 500 nM	CC(=O)N1c2ccccc2N(C(=O)CN2CCCCCC2=O)C[C@@H]1C [Example I-764]
> 10000 nM	> 500 nM	CC(=O)N1c2ccccc2N(C(=O)CCN2CCCCCC2=O)C[C@@H]1C [Example I-765]
> 10000 nM	> 500 nM	CC(=O)N1c2ccccc2N(C(=O)Cn2cnc3ccccc32)C[C@@H]1C [Example I-766]
> 10000 nM	> 500 nM	CC(=O)N1c2ccccc2N(C(=O)CN2CCS(=O)(=O)CC2)C[C@@H]1C [Example I-767]
> 10000 nM	> 500 nM	CC(=O)N1c2ccccc2N(C(=O)c2c(C)noc2C)C[C@@H]1C [Example I-768]
> 10000 nM	> 500 nM	CC(=O)N1c2ccccc2N(C(=O)Cc2nc(-c3ccccc3)oc2C)C[C@@H]1C [Example I-769]
> 10000 nM	> 500 nM	CC(=O)N1c2ccccc2N(C(=O)c2cccc3[nH]ccc23)CC1C (stereo not drawn) [Example I-770]
> 10000 nM	> 500 nM	CC(=O)N1c2ccccc2N(C(=O)c2cc3ccccn3n2)C[C@@H]1C [Example I-771]
> 10000 nM	> 500 nM	CC(=O)N1c2ccccc2N(C(=O)COCC(C)C)C[C@@H]1C [Example I-772]
> 10000 nM	> 500 nM	CC(=O)N1c2ccccc2N(C(=O)c2cnn3c2OCCC3)C[C@@H]1C [Example I-773]
> 10000 nM	> 500 nM	CC(=O)N1c2ccccc2N(C(=O)c2cc3n(n2)CCC3)C[C@@H]1C [Example I-774]
> 10000 nM	> 500 nM	CC(=O)N1c2ccccc2N(C(=O)c2cc3ccncc3s2)C[C@@H]1C [Example I-775]
> 10000 nM	> 500 nM	CC(=O)N1c2ccccc2N(C(=O)c2ccc3nccn3c2)C[C@@H]1C [Example I-776]
> 10000 nM	> 500 nM	CC(=O)N1c2ccccc2N(C(=O)c2cc3ccncc3o2)C[C@@H]1C [Example I-777]
> 10000 nM	> 500 nM	CC(=O)N1c2ccc(-c3ccc(-c4ccccc4)cc3)cc2N(C(=O)COc2ccccc2)C[C@@H]1C [Example I-797]
1000 to 10000 nM	50 to 500 nM	CC(=O)N1c2ccc(-c3cccnc3)cc2N(C(=O)c2ccco2)C[C@@H]1C [Example I-819]
1000 to 10000 nM	50 to 500 nM	CC(=O)N1c2ccc(-c3cnc4ccccc4c3)cc2N(C(=O)c2ccco2)C[C@@H]1C [Example I-823]
> 10000 nM	> 500 nM	CC(=O)N1c2ccc(-c3cc4ccccc4n3C)cc2N(C(=O)c2ccco2)C[C@@H]1C [Example I-839]
